Results published in patent US5084462A, “4-quinoline carboxylic acid derivatives useful as immunosuppressive agents” (The Du Pont Merck Pharmaceutical Company, priority 1990, dated 1992).
Like-named read-outs stand apart in the source and are kept apart here.

Assays:
[1] = tested on: contact sensitivity response to 2,4-dinitrofluorobenzene (DNFB); assay: Contact sensitivity response to 2,4-dinitrofluorobenzene (DNFB) in mice; format: in vivo, Balb/c female mice
Protocol: This is an antigen-specific T-cell mediated inflammatory response that represents delayed-type hypersensitivity reactions seen in both humans and other mammals.
Balb/c female mice (.perspectiveto.20g, Charles River) were sensitized on the shaved abdomen with 25 μl of 0.5% 2,4-dinitrofluorobenzene ([…], Eastman Kodak Co.) in a vehicle of 4:1 acetone:olive oil on days 0 and 1. Mice were ear challenged with 20 μl of 0.2% DNFB in a vehicle of 4:1 acetone:olive oil on day 5. A constant area of the ears was measured immediately before challenge and 24 hours later with an engineer's micrometer. Ear swelling was expressed as the difference in ear thickness before and after challenge in units of 10^-4 inches±SEM. Percent suppression was calculated as: [formula] […] Negative controls were not sensitized on days 0 and 1 but were ear challenged on day 5. Ten mice were used per group.

[2] = tested on: human mixed lymphocyte reaction; assay: Human mixed lymphocyte reaction (3H-thymidine incorporation); format: cell-based; details: Table 4, human PBMC of two donors, 6 days
Text: Contact sensitivity to DNFB has teen extensively studied and characterized in the mouse to determine the regulatory mechanisms involved in cell mediated immune responses (Claman, et al., Immunol Rev 50:105, 1980). This is an antigen-specific T-cell mediated inflammatory response that represents delayed-type hypersensitivity reactions seen in both humans and other mammals. The primary use of the human mixed lymphocyte reaction is for the determination of transplantation compatibility between the donor (graft) and the recipient (Park and Good, p. 71. In Yunis, et al., Tissue typing and organ transplantation. 1973 Academic Press Inc., N.Y.).
Blood was obtained by venipuncture from two nonrelated human donors. Peripheral blood mononuclear cells (PBMC) were isolated from these samples by using the Leuco Prep procedure (Becton-Dickinson). PBMC were washed twice in phosphate buffered saline (without calcium and magnesium) and the separate cell isolations were adjusted to the appropriate concentrations in media (RPMI 1640) supplemented with 10% human AB serum and […] gentamicin. Cells from donor A (2×10^5) were incubated with cells from donor B (2×10^5) in 96 well round bottom microliter plates at 37° C., 5% CO2 for 6 days. Eighteen hours prior to harvesting cells from the plates, all wells were pulsed with 1 μCi of ^3 H-thymidine. Cells from the plates were harvested on day 6 and ^3 H-thymidine incorporation was determined using a scintillation counter.

[3] = Mus musculus, po, 24 h, Table 3, ear swelling, 20.0 mg/kg oral, read-out: % Suppression

## Cc1c(-c2ccc(Sc3ccccc3)cc2)nc2ccc(Cl)cc2c1C(=O)O [Example 7]
[1]; [3]
  inhibition in vivo at 20 mg/kg: 14.4%
[1]; Table 3, 20.0 mg/kg oral
  Ear Swelling (units ± SEM), increase in ear thickness from day 5 to day 6: 62.95 ± 3.40 10^-4 inches

## Cc1c(-c2ccc(Sc3ccccc3)cc2)nc2ccc(Cl)cc2c1C(=O)O [Example 8]
[1]; Table 3, 20.0 mg/kg oral
  Ear Swelling (units ± SEM), increase in ear thickness from day 5 to day 6: 63.25 ± 3.58 10^-4 inches
[1]; Table 3, ear swelling, 20.0 mg/kg oral, 20 mg/kg
  % Suppression: 13.98%

## O=C(O)c1cc(-c2ccc(-c3ccccc3)cc2)nc2ccc(F)cc12 [Example 9]
[1]; [3]
  inhibition in vivo at 20 mg/kg: 43.3%
[1]; Table 3, 20.0 mg/kg oral
  Ear Swelling (units ± SEM), increase in ear thickness from day 5 to day 6: 42.60 ± 2.68 10^-4 inches

## Cc1c(-c2ccc([S+]([O-])c3ccccc3)cc2)nc2ccc(F)cc2c1C(=O)O (stereo not shown) [Example 10]
[1]; [3]
  inhibition in vivo at 20 mg/kg: 22.4%
[1]; Table 3, 20.0 mg/kg oral
  Ear Swelling (units ± SEM), increase in ear thickness from day 5 to day 6: 57.28 ± 2.36 10^-4 inches

## COc1c(-c2ccc(-c3ccccc3)cc2)nc2ccc(F)cc2c1C(=O)O [Example 11]
[1]; [3]
  inhibition in vivo at 20 mg/kg: 74.1%
[1]; Table 3, 20.0 mg/kg oral
  Ear Swelling (units ± SEM), increase in ear thickness from day 5 to day 6: 20.85 ± 2.53 10^-4 inches

## Cc1c(-c2ccc(-c3ccc(O)cc3)cc2)nc2ccc(Cl)cc2c1C(=O)O [Example 12]
[1]; [3]
  inhibition in vivo at 20 mg/kg: 26.3%
[1]; Table 3, 20.0 mg/kg oral
  Ear Swelling (units ± SEM), increase in ear thickness from day 5 to day 6: 54.58 ± 3.21 10^-4 inches

## COc1ccc2c(c1)c(CC(=O)O)c(C)n2C(=O)c1ccc(Cl)cc1 [Indomethacin, reference compound]
[2]
  IC50: > 1000 nM

## CN(Cc1cnc2nc(N)nc(N)c2n1)c1ccc(C(=O)N[C@@H](CCC(=O)O)C(=O)O)cc1 [Methotrexate, reference compound]
[1]; Mus musculus, po, 24 h, Table 2, ear swelling, 0.4 mg/kg oral, read-out: % Suppression
  inhibition in vivo at 0.4 mg/kg: 3.83%
[1]; Mus musculus, po, 24 h, Table 2, ear swelling, 2.0 mg/kg oral, read-out: % Suppression
  inhibition in vivo at 2 mg/kg: 18.1%
[1]; Mus musculus, po, 24 h, Table 2, ear swelling, 10.0 mg/kg oral, read-out: % Suppression
  inhibition in vivo at 10 mg/kg: 51.8%
[1]; Mus musculus, po, 24 h, Table 2, ear swelling, 20.0 mg/kg oral, read-out: % Suppression
  inhibition in vivo at 20 mg/kg: 63.6%
[1]; [3]
  inhibition in vivo at 20 mg/kg: 79.7%
[1]; Mus musculus, Table 2, suppression of ear swelling, oral, days -2 through 6, read-out: ED50
  ED50: 9 mg/kg
[1]; Table 2, 0.4 mg/kg oral
  Ear Swelling (units ± SEM), increase in ear thickness from day 5 to day 6: 71.30 ± 2.96 10^-4 inches
[1]; Table 2, 2.0 mg/kg oral
  Ear Swelling (units ± SEM), increase in ear thickness from day 5 to day 6: 60.80 ± 1.99 10^-4 inches
[1]; Table 2, 10.0 mg/kg oral
  Ear Swelling (units ± SEM), increase in ear thickness from day 5 to day 6: 36.10 ± 3.23 10^-4 inches
[1]; Table 2, 20.0 mg/kg oral
  Ear Swelling (units ± SEM), increase in ear thickness from day 5 to day 6: 27.45 ± 4.99 10^-4 inches
[1]; Table 3, 20.0 mg/kg oral
  Ear Swelling (units ± SEM), increase in ear thickness from day 5 to day 6: 16.94 ± 2.10 10^-4 inches
[2]
  IC50: 2.5 nM
